For one test, the system named is Psdm. aerug. Walter. The test is described as follows: MIC, test tube series dilution test, Psdm. aerug. Walter. The test is classed as cell-based, Pseudomonas aeruginosa. To be noted: Psdm. aerug. Walter; 24 hours, 37°C.
The test system of the next test is E. coli A 261. In words: MIC, test tube series dilution test, E. coli A 261. To be noted: 24 hours, 37°C. The test is classed as cell-based.
The next test concerns E. coli C 165. The test is described as follows: MIC, test tube series dilution test, E. coli C 165. Particulars: 24 hours, 37°C. Format: cell-based.
The subject of the next test is Klebsiella K 10. In words: MIC, test tube series dilution test, Klebsiella K 10. Particulars: 24 hours, 37°C. Format: cell-based.
A further test relates to Staph. aureus 133. The test is classed as cell-based, Staphylococcus aureus. To be noted: Staph. aureus 133; 24 hours, 37°C.
The test system of the next test is E. coli 14. Format: cell-based. To be noted: E. coli 14; 24 hours, 37°C.
Another test concerns Proteus vulg. 1017. Format: cell-based, Proteus vulgaris. Particulars: Proteus 1017; 24 hours, 37°C.
For a further test, the system named is Staph. aureus 1756. The test is described as follows: MIC, test tube series dilution test, Staph. aureus 1756. Format: cell-based, Staphylococcus aureus. Particulars: Staph. aureus 1756; 24 hours, 37°C.
The subject of the next test is Klebsiella 63. The test is described as follows: MIC, test tube series dilution test, Klebsiella 63. The test is classed as cell-based. Particulars: Klebsiella 63; 24 hours, 37°C.
The next test relates to Enterococcus 9790. The test is described as follows: MIC, test tube series dilution test, Enterococcus 9790. The test is classed as cell-based. To be noted: 24 hours, 37°C.
The next test has as its system E. coli 183/58. In words: MIC, test tube series dilution test, E. coli 183/58. Particulars: 24 hours, 37°C. The test is classed as cell-based.
The subject of the next test is Psdm. aerug. F 41. In words: MIC, test tube series dilution test, Psdm. aerug. F 41. The test is classed as cell-based, Pseudomonas aeruginosa. To be noted: Psdm. aerug. F 41; 24 hours, 37°C.
A further test has as its system Proteus morg. 932. In words: MIC, test tube series dilution test, Proteus morg. 932. The test is classed as cell-based. To be noted: 24 hours, 37°C.

Some results are limits rather than exact numbers.

Consider 13 compounds from patent publication US4001218A, “Penicillins” (Bayer Aktiengesellschaft, priority 1972, dated 1977).

Take `CC1(C)S[C@@H]2[C@H](NC(=O)[C@H](NC(=O)c3ccc(NC(=O)C4=CCCCC4)cc3)c3ccccc3)C(=O)N2[C@H]1C(=O)O` [Example 11, sodium D(-)-α-[4-(1-cyclohexene-1-carbonylamino-benzoylamino)]-benzylpenicillin]: the MIC in the test on Psdm. aerug. Walter is on record as 32 U/ml; in the test with E. coli A 261, > 256 U/ml; against E. coli C 165, 8 U/ml; against Klebsiella K 10, 64 U/ml; in the test on Staph. aureus 133 it was < 1 U/ml; against E. coli 14 it was 4 U/ml. The MIC is 64 U/ml against Proteus vulg. 1017; 128 U/ml against Staph. aureus 1756; 32 U/ml in the test with Klebsiella 63; 16 U/ml with Enterococcus 9790; 8 U/ml in the test on E. coli 183/58; 32 U/ml in the test with Psdm. aerug. F 41. In the test with Proteus morg. 932, this compound came in with an MIC of 128 U/ml.

Turning to `COc1cc(OC)cc(C(=O)Nc2ccc(C(=O)N[C@@H](C(=O)N[C@@H]3C(=O)N4[C@@H]3SC(C)(C)[C@@H]4C(=O)O)c3ccccc3)cc2)c1` [Example 18], the MIC in the test with Psdm. aerug. Walter is recorded as 16 U/ml; in the test with E. coli A 261, > 256 U/ml; in the test on E. coli C 165, 8 U/ml; against Klebsiella K 10, 64 U/ml; against Staph. aureus 133 it was < 1 U/ml; in the test with E. coli 14, 4 U/ml. In addition, the MIC came out at 64 U/ml in the test on Proteus vulg. 1017; 16 U/ml against Staph. aureus 1756; 64 U/ml with Klebsiella 63; 8 U/ml in the test with Enterococcus 9790; 8 U/ml in the test with E. coli 183/58; 16 U/ml in the test on Psdm. aerug. F 41. In the test on Proteus morg. 932, this compound came in with an MIC of 128 U/ml.

Regarding `CC1(C)S[C@@H]2[C@H](NC(=O)[C@H](NC(=O)c3ccc(NC(=O)C4CCC4)cc3)c3ccccc3)C(=O)N2[C@H]1C(=O)O` [Example 5, sodium D(-)-α-(4-cyclobutanecarbonylaminobenzoylamino)-benzylpenicillin], the MIC was 64 U/ml against Psdm. aerug. Walter; > 256 U/ml in the test on E. coli A 261; 16 U/ml in the test on E. coli C 165; 128 U/ml in the test with Klebsiella K 10; < 1 U/ml in the test on Staph. aureus 133; 8 U/ml in the test with E. coli 14. Also, the MIC in the test with Proteus vulg. 1017 was determined as 32 U/ml; against Staph. aureus 1756, 32 U/ml; in the test on Klebsiella 63, 64 U/ml; against Enterococcus 9790, 16 U/ml; in the test with E. coli 183/58 it was 32 U/ml; against Psdm. aerug. F 41, 64 U/ml. The compound also returned an MIC with Proteus morg. 932 of 256 U/ml.

For `CC1(C)S[C@@H]2[C@H](NC(=O)[C@H](NC(=O)c3ccc(NC(=O)C4CC=CCC4)cc3)c3ccccc3)C(=O)N2[C@H]1C(=O)O` (single isomer, unassigned) [Example 12, sodium D(-)-α-[4-(3-cyclohexene-1-carbonylamino-benzoylamino)]-benzylpenicillin], the MIC against Psdm. aerug. Walter is 32 U/ml; against E. coli A 261, > 256 U/ml; in the test with E. coli C 165 it was 8 U/ml; in the test with Klebsiella K 10, 32 U/ml; in the test on Staph. aureus 133, < 1 U/ml; with E. coli 14 it was ~ 4 U/ml. The MIC with Proteus vulg. 1017 is reported as 16 U/ml; in the test with Staph. aureus 1756, 16 U/ml; in the test with Klebsiella 63 it was 32 U/ml; in the test on Enterococcus 9790, ~ 8 U/ml; in the test with E. coli 183/58, 16 U/ml; in the test on Psdm. aerug. F 41, 32 U/ml. Besides, the MIC with Proteus morg. 932 was > 256 U/ml.

In the case of `CC1(C)S[C@@H]2[C@H](NC(=O)[C@H](NC(=O)c3ccc(NC(=O)CN=[N+]=[N-])cc3)c3ccccc3)C(=O)N2[C@H]1C(=O)O` [Example 36], the MIC against Psdm. aerug. Walter is ~ 64 U/ml; in the test on E. coli A 261 it was > 256 U/ml; against E. coli C 165, ~ 16 U/ml; in the test with Klebsiella K 10, 128 U/ml; against Staph. aureus 133, < 1 U/ml; in the test on E. coli 14, 8 U/ml. Further, the MIC with Proteus vulg. 1017 is 128 U/ml; with Staph. aureus 1756, 64 U/ml; against Klebsiella 63, 64 U/ml; in the test with Enterococcus 9790, 8 U/ml; with E. coli 183/58, 32 U/ml; in the test on Psdm. aerug. F 41, 32 U/ml.

For `CC1(C)S[C@@H]2[C@H](NC(=O)[C@H](NC(=O)c3ccc([N+](=O)[O-])cc3)c3ccccc3)C(=O)N2[C@H]1C(=O)O` [Example 33, sodium D(-)-α-(4-nitro-benzoylamino)-benzylpenicillin], the MIC in the test on E. coli A 261 is reported as > 256 U/ml; in the test with E. coli C 165, ~ 32 U/ml; against Klebsiella K 10, 128 U/ml; in the test with Staph. aureus 133, < 1 U/ml; against E. coli 14, ~ 8 U/ml; in the test on Proteus vulg. 1017, 64 U/ml. Also, the MIC is 32 U/ml against Staph. aureus 1756; 128 U/ml against Klebsiella 63; 4 U/ml in the test with Enterococcus 9790; 32 U/ml in the test on E. coli 183/58; 64 U/ml in the test on Psdm. aerug. F 41; 256 U/ml in the test on Proteus morg. 932.

In the case of `CC1(C)S[C@@H]2[C@H](NC(=O)[C@H](NC(=O)c3cc(NC(=O)C4CCC4)ccc3Cl)c3ccccc3)C(=O)N2[C@H]1C(=O)O` [Example 52], the MIC in the test on Psdm. aerug. Walter is given as 128-256 U/ml; against E. coli C 165, 128-256 U/ml; against Klebsiella K 10, 128-256 U/ml; against Staph. aureus 133, < 1 U/ml; in the test on Proteus vulg. 1017, > 256 U/ml; against Staph. aureus 1756, 32-64 U/ml. Further, the MIC against Klebsiella 63 is listed as 128-256 U/ml; with Enterococcus 9790, 32-64 U/ml; against E. coli 183/58, 32-64 U/ml; in the test on Psdm. aerug. F 41, 128-256 U/ml.

Turning to `CC1(C)S[C@@H]2[C@H](NC(=O)[C@H](NC(=O)c3cc(NC(=O)C4CC4)ccc3Cl)c3ccccc3)C(=O)N2[C@H]1C(=O)O` [Example 53], the MIC against E. coli C 165 is given as 128-256 U/ml; against Klebsiella K 10 it was > 256 U/ml; against Staph. aureus 133, < 1 U/ml; in the test on E. coli 14, 32 U/ml; against Proteus vulg. 1017, > 256 U/ml; against Staph. aureus 1756 it was 32-64 U/ml. Also, the MIC is 128-256 U/ml in the test on Klebsiella 63, 2-4 U/ml against Enterococcus 9790, 128-256 U/ml in the test on E. coli 183/58 and 128-256 U/ml against Psdm. aerug. F 41.

For `CC1(C)S[C@@H]2[C@H](NC(=O)[C@H](NC(=O)c3ccc(NC(=O)c4ccc(C(F)(F)F)cc4)cc3)c3ccccc3)C(=O)N2[C@H]1C(=O)O` [Example 23], the MIC with Staph. aureus 133, against E. coli 14 and with E. coli 183/58 was < 1 U/ml each time.

Regarding `CC1(C)S[C@@H]2[C@H](NC(=O)[C@H](NC(=O)c3ccc(NC(=O)CC4C=CCC4)cc3)c3ccccc3)C(=O)N2[C@H]1C(=O)[O-].[Na+]` (stereo partly drawn) [Example 8, sodium D(-)-α-(4-[2-cyclopentene-1-acetamido-benzoylamino])-benzylpenicillin], the MIC against Psdm. aerug. Walter is on record as 64 U/ml; with E. coli A 261, > 256 U/ml; against E. coli C 165 it was 8 U/ml; against Klebsiella K 10, 64 U/ml; with Staph. aureus 133 it was < 1 U/ml; in the test with Proteus vulg. 1017 it was 64 U/ml. For the same compound, the MIC against Staph. aureus 1756 is given as 8 U/ml; in the test with Klebsiella 63 it was 32 U/ml; against Enterococcus 9790 it was 8 U/ml; against E. coli 183/58, 16 U/ml; against Psdm. aerug. F 41, 64 U/ml; against Proteus morg. 932 it was 128 U/ml.

For `CC1(C)S[C@@H]2[C@H](NC(=O)[C@H](NC(=O)CNC(=O)c3ccc(NC(=O)C4CC4)cc3)c3ccccc3)C(=O)N2[C@H]1C(=O)O` [Example 64], the MIC was > 256 U/ml with E. coli A 261; 32 U/ml in the test with E. coli C 165; 128 U/ml against Klebsiella K 10; 64 U/ml against Proteus vulg. 1017; 16 U/ml against Staph. aureus 1756; 64 U/ml against Klebsiella 63. In addition, the MIC is recorded as 8 U/ml against Enterococcus 9790, 64 U/ml with E. coli 183/58, 256 U/ml against Psdm. aerug. F 41 and > 256 U/ml against Proteus morg. 932.

As to `CNC(=S)Nc1ccc(C(=O)N[C@@H](C(=O)N[C@@H]2C(=O)N3[C@@H]2SC(C)(C)[C@@H]3C(=O)O)c2ccccc2)cc1` [Example 47], the MIC is > 256 U/ml against Psdm. aerug. Walter; > 256 U/ml in the test on E. coli A 261; 32 U/ml against E. coli C 165; 256 U/ml in the test on Klebsiella K 10; < 1 U/ml against Staph. aureus 133; 16 U/ml against E. coli 14. The MIC against Proteus vulg. 1017 is reported as 32 U/ml; in the test with Staph. aureus 1756, 64 U/ml; with Klebsiella 63 it was 128 U/ml; in the test on Enterococcus 9790 it was 4 U/ml; in the test with Psdm. aerug. F 41, 64 U/ml; in the test on Proteus morg. 932 it was > 256 U/ml.

For `Cc1cc(C)cc(C(=O)Nc2ccc(C(=O)N[C@@H](C(=O)N[C@@H]3C(=O)N4[C@@H]3SC(C)(C)[C@@H]4C(=O)O)c3ccccc3)cc2)c1` [Example 21], the MIC in the test on E. coli A 261 is reported as ~ 256 U/ml; in the test on Staph. aureus 133 it was < 1 U/ml; against E. coli 14 it was < 1 U/ml; in the test on Enterococcus 9790, ~ 4 U/ml; in the test on E. coli 183/58 it was ~ 1 U/ml; in the test with Psdm. aerug. F 41, ~ 16 U/ml.
